Earlier results, collected in patent US20250360174A1, “ENGINEERED BACTERIA, ENGINEERED BIOFILMS, AND LIVING MATERIALS BASED ON BACILLUS SUBTILIS” (EAST CHINA UNIVERSITY OF SCIENCE AND TECHNOLOGY, priority 2024, published 2025).

Test system: RAW264.7 cells

Compound: O[C@H]1[C@@H]2OC[C@H](O[C@H]1O)[C@H]2O [L-AHG, 3,6-anhydro-α-L-galactose]
- anti-inflammatory activity: has been shown to have anti-inflammatory activity
